Experimental data: ChEMBL document CHEMBL2074016, “Comparative studies on in vitro methods for evaluating in vivo function of MDR1 P-glycoprotein” (Pharm Res, 2001)

Columns and labels:
[1] = system: CN1C(=O)CN=C(c2ccccc2)c2cc(Cl)ccc21; assay: (§1) TP_TRANSPORTER: ATP hydrolysis in membrane fraction from High Five (BTI-TN5B1-4) cells; format: functional, cell membranes, BTI-TN-5B1-4
[2] = target: T1, ATP-dependent translocase ABCB1 (Homo sapiens, UniProt P08183); assay: TP_TRANSPORTER: transepithelial transport (apical to basal) of Vinblastine at a concentration of 22.5 nM in MDR1-expressing LLC-PK1 cells; format: functional, cell-based; settings: pig
T1 sequence (P08183 whole entry): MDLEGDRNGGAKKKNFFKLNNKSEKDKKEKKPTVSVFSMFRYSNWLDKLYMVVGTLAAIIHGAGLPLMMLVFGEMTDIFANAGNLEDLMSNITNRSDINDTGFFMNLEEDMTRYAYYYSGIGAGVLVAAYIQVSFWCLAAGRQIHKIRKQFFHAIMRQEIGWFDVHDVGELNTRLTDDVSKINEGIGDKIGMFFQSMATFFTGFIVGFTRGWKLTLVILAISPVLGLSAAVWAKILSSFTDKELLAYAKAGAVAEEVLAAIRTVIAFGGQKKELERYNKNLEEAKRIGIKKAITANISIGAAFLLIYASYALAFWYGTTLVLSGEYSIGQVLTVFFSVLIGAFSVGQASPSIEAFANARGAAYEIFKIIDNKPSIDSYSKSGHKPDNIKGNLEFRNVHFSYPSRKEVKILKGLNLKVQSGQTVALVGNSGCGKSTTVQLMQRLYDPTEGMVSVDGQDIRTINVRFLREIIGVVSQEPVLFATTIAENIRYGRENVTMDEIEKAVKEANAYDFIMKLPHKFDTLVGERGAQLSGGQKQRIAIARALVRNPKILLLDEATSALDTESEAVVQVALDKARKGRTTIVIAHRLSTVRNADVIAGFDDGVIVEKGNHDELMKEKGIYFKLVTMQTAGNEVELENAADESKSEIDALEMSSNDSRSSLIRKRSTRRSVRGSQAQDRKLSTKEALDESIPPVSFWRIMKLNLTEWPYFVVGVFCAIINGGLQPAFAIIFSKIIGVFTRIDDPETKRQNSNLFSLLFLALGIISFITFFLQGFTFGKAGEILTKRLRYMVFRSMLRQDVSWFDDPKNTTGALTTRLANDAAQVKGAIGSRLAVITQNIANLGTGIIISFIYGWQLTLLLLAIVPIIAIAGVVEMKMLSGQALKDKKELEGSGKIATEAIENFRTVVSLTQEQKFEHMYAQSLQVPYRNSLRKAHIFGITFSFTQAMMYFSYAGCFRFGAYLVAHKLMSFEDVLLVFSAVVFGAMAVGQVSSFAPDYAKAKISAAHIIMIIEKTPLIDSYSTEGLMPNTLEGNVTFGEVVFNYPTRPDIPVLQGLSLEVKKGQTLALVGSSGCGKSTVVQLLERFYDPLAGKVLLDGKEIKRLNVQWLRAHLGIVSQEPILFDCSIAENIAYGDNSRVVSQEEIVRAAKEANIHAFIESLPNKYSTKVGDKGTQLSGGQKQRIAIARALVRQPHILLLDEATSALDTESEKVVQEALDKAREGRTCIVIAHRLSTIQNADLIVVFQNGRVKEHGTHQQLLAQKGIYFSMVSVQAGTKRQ

[3] = target: T1, ATP-dependent translocase ABCB1; assay: TP_TRANSPORTER: transepithelial transport (apical to basal) of Daunorubicin (Daunomycin) at a concentration of 200 nM in MDR1-expressing LLC-PK1 cells; format: functional, cell-based; settings: pig, llc-pk1, 0.2 µM
[4] = target: P-glycoprotein 1 and 3 (MDR1a/MDR1b) (Mus musculus, UniProt P21447+P06795); assay: TP_TRANSPORTER: increase in brain concentration in mdr1a/1b(-/-) mouse; format: functional, organism-based; settings: in vivo
[5] = target: T1, ATP-dependent translocase ABCB1; assay: as §1; format: functional, cell membranes, BTI-TN-5B1-4; settings: bti-tn-5b1-4
[6] = target: T1, ATP-dependent translocase ABCB1; assay: TP_TRANSPORTER: transepithelial transport (apical to basal) of Progesterone at 7 nM in MDR1-expressing LLC-PK1 cells; format: functional, cell-based; settings: pig, llc-pk1, 0.007 µM
[7] = target: T1, ATP-dependent translocase ABCB1; assay: TP_TRANSPORTER: transepithelial transport (apical to basal) of Digoxin at a concentration of 52.6 nM in MDR1-expressing LLC-PK1 cells; format: functional, cell-based; settings: pig, llc-pk1, 0.0526 µM
[8] = target: ATP-dependent translocase ABCB1 (P-glycoprotein) (Homo sapiens, UniProt P08183); assay: as §1; format: functional, cell membranes, BTI-TN-5B1-4; settings: membrane fraction from High Five (BTI-TN5B1-4) cells
Sequence of ATP-dependent translocase ABCB1 (P-glycoprotein) (P08183 whole entry): as above

[9] = target: T1, ATP-dependent translocase ABCB1; assay: TP_TRANSPORTER: transepithelial transport (apical to basal) of Loperamide at a concentration of 1 uM in MDR1-expressing LLC-PK1 cells; format: functional, cell-based; settings: pig, llc-pk1, 1 µM
[10] = target: T1, ATP-dependent translocase ABCB1; assay: TP_TRANSPORTER: transepithelial transport (apical to basal) of Dexamethasone at a concentration of 24.7 nM in MDR1-expressing LLC-PK1 cells; format: functional, cell-based; settings: pig, llc-pk1, 0.0247 µM

Compound “ATP-dependent translocase ABCB1 (Homo sapiens)” has a Km [1] of 72.4 µM.

For `CC[C@]1(O)C[C@@H]2CN(CCc3c([nH]c4ccccc34)[C@@](C(=O)OC)(c3cc4c(cc3OC)N(C)[C@H]3[C@@](O)(C(=O)OC)[C@H](OC(C)=O)[C@]5(CC)C=CCN6CC[C@]43[C@@H]65)C2)C1` [VINBLASTINE], the Activity [2] was “substrate [+]”.

For `COc1cccc2c1C(=O)c1c(O)c3c(c(O)c1C2=O)C[C@@](O)(C(C)=O)C[C@@H]3O[C@H]1C[C@H](N)[C@H](O)[C@H](C)O1` [DAUNORUBICIN], the Activity [3] was “substrate [+]” and the Activity [4] was “substrate [+]”.

With `CN/C(=N/CCSCc1nc[nH]c1C)NC#N` [CIMETIDINE] the Activity [5] was “is not a substrate [-]”.

With `C[C@]12CC[C@@H]3c4ccc(O)cc4CC[C@H]3[C@@H]1CC[C@@H]2O[C@@H]1O[C@H](C(=O)O)[C@@H](O)[C@H](O)[C@H]1O` [ESTRADIOL 17B GLUCURONIDE] the Activity [5] was “substrate [+]”.

`CC(=O)[C@H]1CC[C@H]2[C@@H]3CCC4=CC(=O)CC[C@]4(C)[C@H]3CC[C@]12C` [PROGESTERONE] was tested, and the Activity [6] was “is not a substrate [-]”.

For `C[C@H]1O[C@@H](O[C@H]2[C@@H](O)C[C@H](O[C@H]3[C@@H](O)C[C@H](O[C@H]4CC[C@@]5(C)[C@H](CC[C@@H]6[C@@H]5C[C@@H](O)[C@]5(C)[C@@H](C7=CC(=O)OC7)CC[C@]65O)C4)O[C@@H]3C)O[C@@H]2C)C[C@H](O)[C@@H]1O` [DIGOXIN], the Activity [7] was “substrate [+]”.

In the case of `CN(C)C(=O)C(CCN1CCC(O)(c2ccc(Cl)cc2)CC1)(c1ccccc1)c1ccccc1` [LOPERAMIDE], the Km [8] is reported as 13.8 µM and the Activity [9] is reported as “substrate [+]”.

With `C[C@@H]1C[C@H]2[C@@H]3CCC4=CC(=O)C=C[C@]4(C)[C@@]3(F)[C@@H](O)C[C@]2(C)[C@@]1(O)C(=O)CO` [DEXAMETHASONE] the Activity [5] was “is not a substrate [-]” and the Activity [10] was “substrate [+]”.
